Results published in patent publication US3976770A, “Sar'-(OMe)Thr^8 Angiotensin II as an angiotensin II antagonist” (priority 1975, dated 1976).

Tests used:
[1] = test system: pressor response of angiotensin II; assay: blocking of the pressor response of angiotensin II in ganglion blocked rats; format: in vivo
Procedure: For determining its antagonistic properties the compound was infused intravenously in ganglion blocked rats at a dose level of 125, 250, 500, 1250 ng/kg/min. The blocking effect of the compound was calculated from the dose-response curve of angiotensin II before and during the infusion of the analog. General procedure adopted for this assay has been described by Bumpus et al., Circ. Res. 32-33 (Supplement I), I-150 (1973). […] The dose-ratio obtained was 62.50 ± 14.93 at a dose-level of 250 ng/kg/min.

[2] = water solubility and storage of solution; format: physicochemical
Procedure: Since the above compound is particularly suitable for injection or infusion, it is particularly valuable that the compound is watersoluble. A suitable dosage unit can be prepared by simply dissolving the above compound in water or physiological saline at a concentration of between 50 and 6000 ng/ml. […] A commonly employed buffer for an injectable solution is Tris(hydroxymethyl) aminomethane but simple salts such as sodium phosphate or acetate can be used. Preferably, the vehicle or medium in which the compound of Formula I is dissolved for an injectable or infusable solution is buffered to a pH of 7 to 7.5.

[3] = duration of action after i.m. injection of an oil solution; format: in vivo; conditions: single i.m. injection, dissolved in oil
Procedure: The duration of action of the compound can be prolonged by injecting an oil solution intramuscularly. Oils suitable for this purpose are cod liver oil, sesame oil, refined coconut oil, etc. Antagonistic effects are thus observed for 24 hours or longer after a single i.m. injection of the drug dissolved in such an oil.

[4] = test system: acute unilateral renal hypertensive rats; assay: blood pressure in acute unilateral renal hypertensive rats; format: in vivo; conditions: intravenous infusion
blood pressure = assay: in vivo pressor response on infusion into anesthetized, vagotomized rats; conditions: scale set artificially at 100 for angiotensin II
Procedure: In the in vivo assays, rats were anesthetized with sodium amytal and further treated with 0.6 mg atropine and pentolinium tartrate. They were vagotomized and direct recording of the blood pressure was measured through the carotid artery, while the femoral artery was used for infusing the desired dose over a period of 30 minutes in a physiological saline solution.
The dose-response curves of angiotensin II at 0.9 to 54 ng/kg/min. were compared by linear regression analysis with those of the antagonist at doses of 1, 10, 100 and 1000 ng/kg/min. Infusion of the above antagonist into rats thus prepared led to the initial transient pressor response of 0.48 on a scale set artificially at 100 for angiotensin II using the same system.

water solubility [2]: watersoluble | storage of solution without deterioration ([2]; solution in water or physiological saline, 50-6000 ng/ml, proper conditions): several weeks without deterioration
SMILES: CC[C@H](C)[C@H](NC(=O)[C@H](Cc1ccc(O)cc1)NC(=O)[C@@H](NC(=O)[C@H](CCCNC(=N)N)NC(=O)CNC)C(C)C)C(=O)N[C@@H](Cc1cnc[nH]1)C(=O)N1CCC[C@H]1C(=O)N[C@H](C(=O)O)[C@@H](C)OC [Formula I, Sar'-(OMe)Thr^8 Angiotensin II]
dose-ratio ([1]; dose-level of 250 ng/kg/min, intravenous infusion, ganglion blocked rats): 62.50 ± 14.93 | pressor effect of angiotensin II ([1]; intravenous infusion into rats in a very small amount): inhibited | dose level at which the pressor response of angiotensin II was blocked ([1]; intravenous infusion, ganglion blocked rats): ≥ 125 ng/kg/min | duration of antagonistic effects [3]: ≥ 24 h | blood pressure [4]: capable of reducing blood pressure | initial transient pressor response (blood pressure): 0.48
